Laboratory results: publication PMC5155426, “Organic Redox Species in Aqueous Flow Batteries: Redox Potentials, Chemical Stability and Solubility” (Scientific Reports, 2016)
Values joined by “and” are separate entries in the source; they are usually repeats but may differ in a detail not shown here. Equal values may be shown once. Read-outs that look alike come from different tables or passages of the source.

Legend:
[1] = pKa of the central (hydro)quinone groups estimated from the Pourbaix diagram; assay type: physicochemical; conditions: aqueous media, estimated from slope change in Pourbaix diagram, Fig. 5
Experimental: Quinones generally undergo a reversible two-electron reduction/oxidation. The redox potential is strongly pH dependent, as the reaction may or may not involve two protons as illustrated in the scheme-of-squares mechanistic pathway in Fig. 3 [26]. At pH < pKa1, the reaction includes two protons and thus E^0’ decreases with 59 mV per pH unit (at 25 °C)[24]. At pKa1 < pH < pKa2 and pKa2 < pH only one and no protons are involved, whereby E^0’ decreases with 30 and 0 mV per pH unit, respectively. Generally, the reactions that include protons are slower and result in a lower electrochemical rate constant (k0) and may ultimately lead to higher charge-transfer resistance in the RFB. Thus, the choice of pH in the RFB environment strongly influences quinone electrochemical performance.
Similarly to sulfonated AQs, the positions of the hydroxyl groups affect E^0’, but in acidic only to a small extent. […] The three former all have the hydroxyl groups on positions close to the quinone groups. The difference in E^0’ for these hydroxylated AQs and others may be found in the pKa values of the central (hydro)quinone groups. Those are not trivial to measure given the insolubility at lower pH values for hydroxylated AQs, but they can be estimated from the Pourbaix diagram in Fig. 5 [24][26]. For instance, in the Pourbaix diagram of AQDS(2,7), E^0’ follows the expected −59 mv/pH unit from pH 0 to pH 7 (pKa1). Then the first (hydro)quinone group deprotonates, and the slope changes to 30 mV/pH unit until pH 10 (pKa2) and E^0’ becomes pH-independent. […] Thus, if one can predict or measure reasonable values for these pKa values, it should be possible to predict which ones will have a more negative or positive E^0’ at higher pH.

[2] = Visual inspection of dissolved samples on standing (thixotropy, phase separation); assay type: physicochemical
Experimental: Dissolved samples were left to stand for 12 hours and visually inspected for thixotropy using a vortex generator. For very insoluble compounds the amount of sample was decreased to 0.01 g and the dissolution time increased up to 24 h.
In practical RFBs thixotropy is not wanted, as the redox solutions can be kept still for long times. […] Thixotropy of AQ dyes in aqueous dispersions has been described earlier, as well as some methods to overcome the problem such as addition of polyvinylpyrrolidone to the solution[43].

[3] = Cyclic voltammetry: formal redox potential, peak current ratio, electrochemical reversibility; assay type: physicochemical
Experimental: The investigated compounds were used as-purchased and without any purification. […] For each series of CVs, a freshly polished electrode was used. The CVs for soluble compounds in 1 mM concentration were recorded in a glass beaker with a customized lid in nitrogen purged solutions of three different pHs, namely pH 0 (1 M H2SO4), pH 7 (0.5 M phosphate buffer) and pH 13 (1 M NaOH). The pH of the NaOH solution is taken as 13 to account for carbonization of the solution with exposure to air. A background CV was recorded before each CV experiment to exclude background contaminations. The CVs of insoluble compounds in 1 M H2SO4, or 0.5 M phosphate buffer were recorded as follows: 6 mL of the supporting electrolyte was mixed with approximately 4 mL of acetone, and then a small amount of the quinone was added so that its concentration was around 1 mM.
Each CV was analyzed in terms of peak potentials and peak currents. Peak currents were determined by subtracting a polynomial fit of the background from the recorded current as exemplified in Supplementary, S1. A plot of the absolute values of the peak currents to the square root of the scan rate was constructed and, when reasonable, a linear fit included to evaluate the electrochemical (Nernstian) reversibility of the electrochemical reaction. The peak current Ip for reversible reactions are given by equation (1).
Where F is the Faraday constant, R the gas constant, T the temperature, n the number of electron transferred, A the area of the electrode, DOthe diffusion coefficient and CO^*the bulk concentration of the analyte and v the scan rate. The peak current ratio is expected to be close to one for reversible species. The formal redox potential (E^0’), which is the adjusted form of the standard redox potential, where effects of the medium is taken into account, is reported here as the midpoint potential between the two peak potentials in the CV[24]. All half-cell potentials in this work refer to the normal hydrogen electrode (VNHE).

[4] = CV of GC electrode ground with pure anthraquinone (Pourbaix diagram); assay type: physicochemical; conditions: for E0' of unsubstituted AQ: surface-attached AQ on GC electrode
Excerpt: Organic R edox Species in Aqueous F low Batteries: R edox Potentials, C hem ical Stab ilit y and So lub ilit y S2: Pure Anthraquinone Pourbaix diagram
The redox potential of pure 9,10 -anthraquinone (Sigma-Aldrich, 97%) was estimated in aqueous solutions at different pH values by measuring the CV response of a GC electrode that had been freshly grinded with anthraquinone mixed with acetone to yield a surface covered/attached species. The CVs are shown in Figure 2, and it is noticed that as the pH increases, there is a significant side- reaction, and it was only possible to obtain reliable data up to pH 10. Thus, the redox potential at pH 13 is only extrapolated. The solutions were freshly prepared and were: 1 M H2SO4 f or pH 0, 0.2 M HCl/KCl buffer for pH 2, Reagecon Technical buffers for pH 4 and 7, 0 . 2 M acetate buffer f or pH 5 and Radiometer Analytical buffer (carbonate) for pH 10.
Figure 2 CVs for the anthraquinone-grinded GC electrode at different […]
Figure 3: The observed standard potential as a function of pH (right).
The line represents linear regression data. Colored arrows indicates the peaks interpreted as the pure AQ peaks used for the Pourbaix […]

[5] = Aqueous solubility estimation (OECD test #105) in 1 M supporting electrolytes; conditions: thermodynamic from solid, Solubility
Experimental: After each addition the test tube was ultrasonicated and/or shaken vigorously using a Vortex Generator for at least 10 minutes at room temperature. Then the tube was inspected visually for undissolved sample and the addition of supporting electrolyte solution continued until the sample seemed just dissolved. The volumes just before and after full dissolution are used for calculating the solubility interval (Supplementary, S4 and S5) and the solubility is estimated as the average between the two.

[6] = TEMPOL stability in aqueous buffer; assay type: physicochemical; conditions: after 30 days, uncharged state
Experimental: As an alternative to quinones, the nitroxide radical TEMPOL, was tested. […] This behaviour is similar to previous studies. […] A few other nitrogen-containing redox active species (Fig. 2 and Supplementary, S7) were included.

[7] = read-out: pKa1 of the (hydro)quinone groups
[8] = read-out: pKa2 of the (hydro)quinone groups
[9] = pH 0 (1 M H2SO4), midpoint of CV peak potentials, about 1 mM, acetone added for insoluble compounds

| pKa [1, 7] | pKa [1, 8] | thixotropy ([2]; all supporting electrolytes, disodium form as received) | Comment: behaviour of the solution upon standing ([2]; electrolyte not stated) | Electrochemical reversibility ([3]; pH 0) | Peak current ratio ([3]; pH 0) | formal redox potential E0' [3, 9] | formal redox potential E0' ([3]; pH 0 (1 M H2SO4); midpoint of CV peak potentials; about 1 mM; acetone added for insoluble compounds; 7)) | Peak current ratio ([3]; pH 7) | Electrochemical reversibility ([3]; pH 13) | Peak current ratio ([3]; pH 13) | solubility ([5]; 1 M H2SO4 supporting electrolyte prepared from MilliQ water, aqueous buffer, 1 M H2SO4, room temperature, interval just after / before full dissolution) [mM] | solubility ([5]; 1 M KCl supporting electrolyte prepared from MilliQ water, saline or isotonic, 1 M KCl, room temperature) [mM] | SMILES | Electrochemical reversibility ([3]; pH 7) | E0' lower than that of HQ(1,4) ([4]; pH 0) | E0' of unsubstituted AQ ([4]; pH 0) [VNHE] | E0' of unsubstituted AQ ([4]; pH 7) [VNHE] | E0' of unsubstituted AQ, estimated by extrapolation in Fig. 5 ([4]; pH 13, reliable data only up to pH 10) [VNHE] | degradation in aqueous buffer [6] |
| --- | --- | --- | --- | --- | --- | --- | --- | --- | --- | --- | --- | --- | --- | --- | --- | --- | --- | --- | --- |
| 7 | 10 | thixotropy was observed | T hixotropic behaviour | Quasireversible | 0.7(1) | 0.165 VNHE | 0.165(5) VNHE | 0.56(3) | Reversible | 0.96(7) |  |  | O=C1c2ccc(S(=O)(=O)O)cc2C(=O)c2cc(S(=O)(=O)O)ccc21 [AQDS(2,7), 9,10-anthraquinone-2,7-disulfonate disodium] | Quasireversible |  |  |  |  |  |
|  |  |  |  |  |  |  |  |  |  |  |  |  | O=C1c2ccccc2C(=O)c2ccccc21 [AQ, 9,10-anthraquinone] |  | about 300 mV | 0.4 | 0 | ~−0.4 |  |
| > 13 | > 13 |  |  |  | 0.83(4) | 0.039(4) VNHE and 0.04 VNHE |  | 0.9(1) | Reversible | 1.1(1) | < 10 | < 10 | O=C1c2ccc(O)cc2C(=O)c2ccc(O)cc21 [AQDH(2,6), 2,6-dihydroxy-9,10-anthraquinone] |  |  |  |  |  |  |
|  |  |  |  |  |  |  |  |  |  |  |  |  | CC1(C)CC(O)CC(C)(C)N1[O] [TEMPOL, 4-hydroxy-2,2,6,6-tetramethylpiperidine-1-oxyl] | reversible |  |  |  |  | no degradation |
